Laboratory results taken from patent US9931410B2, “Nanoparticles for targeted delivery of multiple therapeutic agents and methods of use” (priority 2012, dated 2018).

What was measured:
[1] = Drug loading and encapsulation efficiency (AAS for platinum, spectrophotometry for irinotecan); type: physicochemical
Procedure: Particle sizing was performed using dynamic light scattering (DLS) with a Zetasizer Nano ZS instrument (Malvern Instruments Ltd., U.K.). For each measurement, 100 μL or more of the sample was loaded in a disposable low-volume cuvette. Transmission electron microscopy (TEM) experiments were carried out on a JEOL 2011 instrument at an acceleration voltage of 200 kV. The TEM sample was prepared by depositing 10 μL of the nanoparticle suspension (1.0 mg/mL) onto a 300-mesh carbon-coated copper grid. Samples were blotted away after 30 minutes incubation and the grids were negatively stained for 20 minutes at room temperature with a sterile-filtered 1% (w/v) uranyl acetate aqueous solution. Drug loading and encapsulation efficiency (EE) were determined by quantifying the amount of drug in the nanoparticles. Drug loading is defined as the mass fraction of the drug in the nanoparticles, whereas EE is the fraction of initial drug that is encapsulated by the nanoparticles. After synthesis, nanoparticles were dissolved in a solution 50/50 acetonitrile/water and vortexed for several hours to induce nanoparticle dissociation. The amount of platinum inside the nanoparticles was detected using Atomic Absorption Spectroscopy (AAS), from which the load of cisplatin was calculated. Irinotecan was detected using spectrophotometry on a TECAN 1000 plate reader at a wavelength of 385 nm. A calibration curve with known concentrations of irinotecan was prepared, and the amount of irinotecan encapsulated in the nanoparticles was calculated using the calibration curve.

[2] = Drug release from nanoparticles over time in phosphate buffered saline; type: physicochemical; settings: PLGA-PEG-LIG nanoparticles, irinotecan to cisplatin ratio 2:1, phosphate buffered saline
Procedure: FIG. 8 is a graph showing the percent of irinotecan and platinum release from PLGA-PEG-LIG nanoparticles over time in phosphate buffered saline.
Next, the amount of cisplatin and irinotecan encapsulated in the nanoparticles as well their encapsulation efficiency (EE) was determined (FIG. 7). As expected, cisplatin was encapsulated with very high efficiency (>80%) due to the hydrophobic-hydrophobic interaction PLGA and PLA. […] This might be due to hydrophilic-hydrophilic interactions of the platinum prodrug and irinotecan. […] The percent drug release of irinotecan and platinum of these nanoparticles over time was also assessed. Irinotecan was released from these nanoparticles at a faster rate compared to the release of the Pt-containing chemotherapeutic agent (FIG. 8).

[3] = after self-assembly with PLGA-PEG
[4] = mixed with both PLGA-PEG and PLA-cisplatin

SMILES	drug loading of irinotecan [1, 3] [%]	encapsulation efficiency (EE) of irinotecan [1, 3] [%]	drug loading of irinotecan [1, 4] [%]	encapsulation efficiency (EE) of irinotecan [1, 4] [%]	rate of drug release from nanoparticles compared to the Pt-containing agent [2]	encapsulation efficiency of cisplatin ([1]; cisplatin as PLA-cisplatin in nanoparticles) [%]
CCc1c2c(nc3ccc(OC(=O)N4CCC(N5CCCCC5)CC4)cc13)-c1cc3c(c(=O)n1C2)COC(=O)[C@]3(O)CC [Irinotecan, irinotecan]	0.5	10	2.2	44	faster rate	–
N.N.[Cl][Pt][Cl] [cisplatin]	–	–	–	–	–	> 80
